# Data taken from patent publication US20240299401A1, “NOVEL REDOX-BASED THERAPEUTIC APPROACH FOR TREATMENT OF CANCER” (THE PENN STATE RESEARCH FOUNDATION, priority 2020, published 2024).
# Where a name gives a salt, the structure may show the parent alone. Read-outs that look alike come from different tables or passages of the source.
# What was measured:
# HL60 = test: WST-1 cytotoxicity and synergy analysis, HL60; type: cell-based, human; settings: Homo sapiens, HL-60
# Experimental: (§1) Two different cytotoxicity/proliferation kit was used in this study i.e., WST-1 proliferation assay kit (Roche, Indianapolis, IN, USA; Cat #28620000) and Cell-titer Glo-luminescent cell viability assay (Promega, WI, USA; Cat #0000348721). Majority of the cell proliferation/cytotoxicity experiments were performed with WST-1 assay. Briefly, cells were seeded at the indicated density for 24 h in 96 well plate, media was replaced, and subsequently treated with the test compounds at different doses. […] Cell titer Glo-assay was additionally performed in certain cases to validate the results from WST-1 assay as outlined above following manufacturer's instructions and luminescence was measured using a FLx100 Luminometer (CLARIOSTAR®, Ortenbery, Germany). […] Other proliferation/cytotoxicity assays were also carried out i.e., Quant™-iT PicoGreen ds DNA assay kit (Thermo Scientific, Rockwood, TN, USA, P7589) following manufacturer's instructions, Trypan blue (Sigma, Ayrshire, UK, T8154) and acid phosphatase assay for validation of cytotoxicity/proliferation data from other assays.
# H661 = test: WST-1 cytotoxicity, H661; type: cell-based, human; settings: Homo sapiens, NCI-H661, 24 h
# Experimental: as §1
# NB4 = test: WST-1 cytotoxicity, NB4; type: cell-based, human; settings: Homo sapiens, NB-4
# Experimental: as §1
# A549 = test: WST-1 cytotoxicity, A549; type: cell-based, human; settings: Homo sapiens
# Experimental: as §1
# ATF4 = settings: HEK293 ATF4 reporter; tunicamycin 2.5 μM, other compounds 5.0 μM; 24 h
# Experimental: The next day, media was replaced with respective compounds as described. Twenty-four hours post-treatment, media were aspirated and replaced with 1:1 ratio of PBS:Bright Glo luciferase reagent mix (Promega, Madison, WI, USA) according to manufacturer's protocol. Cells were incubated in the dark for 10 min at room temperature with gentle rocking and luciferase activity was measured using an FLx100 Luminometer (CLARIOSTAR®, Ortenbery, Germany). In parallel, the same setup was made, and the cells were used to monitor the proliferation/toxicity of individual exposed compounds. Luciferase signal is normalized to the to the proliferation/toxicity of the individual compounds. Bortezomib (50 nM, Sigma-Aldrich, St. Louis, MO, USA), a known agonist for ATF4, was used as a positive control.
# The next day, old media was replaced with media containing the respective compounds as described in the figure legends. […] Cells were incubated in the dark for 10 min at room temperature with gentle rocking and luciferase activity was measured using an FLx100 Luminometer (CLARIOSTAR®, Ortenbery, Germany). […] In parallel, the same setup was made, and the cells were used to monitor the proliferation/toxicity of individual compounds. Luciferase signal was normalized to correct for the proliferation/toxicity of the individual compounds. […] For ATF4 reporter assay, Hek293T reporter cells 20 were cultured similarly as indicated for MCF7 cells, except for seeding density was set at 300 cells/mm2. All other experimental set up was similar.
# [1] = test system: 23 different human cell lines of multiple cancer origins; test: Cytotoxicity across the cancer cell line panel (summary statements); type: cell-based
# Experimental: as §1
# U1906E = test: WST-1 cytotoxicity, U1906E; type: cell-based; settings: Homo sapiens; U1906E; alone; 24 h; read-out: Calculated IC50 values
# Experimental: as §1
# LS174T = test: WST-1 cytotoxicity, LS174T; type: cell-based; settings: Homo sapiens, alone, 24 h, read-out: Calculated IC50 values
# Experimental: as §1
# [2] = test system: Primary Human hepatocytes; test: WST-1 cytotoxicity, primary human hepatocytes; settings: Hepatocyte, 24 h, read-out: Calculated IC50 values
# 8-MGBA = test: WST-1 cytotoxicity, 8-MGBA; type: cell-based; settings: Homo sapiens, 8-MG-BA; 8-MGBA; alone; 24 h; read-out: Calculated IC50 values
# Experimental: as §1
# SHSY5-SY = test: WST-1 cytotoxicity, SHSY5-SY; type: cell-based; settings: Homo sapiens; SHSY5-SY; alone; 24 h; read-out: Calculated IC50 values
# Experimental: as §1
# [3] = Reported oral administration of selenocystine in humans; type: in vivo, human; settings: assuming 15% of 100 mg daily dose bioavailable, blood volume 5 L
# THP-1 = test: WST-1 cytotoxicity, THP-1; type: cell-based; settings: Homo sapiens; THP-1; alone; 24 h; read-out: Calculated IC50 values
# Experimental: as §1
# H1299 = test: WST-1 cytotoxicity, H1299; type: cell-based, human; settings: Homo sapiens, NCI-H1299, H1299, alone
# Experimental: as §1
# HeLa = test: WST-1 cytotoxicity, HeLa; type: cell-based; settings: Homo sapiens, alone, 24 h, read-out: Calculated IC50 values
# Experimental: as §1
# HUH7 = test: WST-1 cytotoxicity, HUH7; type: cell-based; settings: Homo sapiens, Huh-7; HUH7; alone; 24 h; read-out: Calculated IC50 values
# Experimental: as §1
# IGROV1 = test: WST-1 cytotoxicity, IGROV1; type: cell-based, human; settings: IGROV1; alone; 24 h; dose up to 200 μM
# Experimental: as §1
# OV2008 = test: WST-1 cytotoxicity, OV2008; type: cell-based; settings: Homo sapiens; OV2008; alone; 24 h; read-out: Calculated IC50 values
# Experimental: as §1
# U1906L = test: WST-1 cytotoxicity, U1906L; type: cell-based; settings: Homo sapiens; U1906L; alone; 24 h; read-out: Calculated IC50 values
# Experimental: as §1
# PANC-1 = test: WST-1 cytotoxicity, PANC-1; type: cell-based; settings: Homo sapiens; PANC-1; alone; 24 h; read-out: Calculated IC50 values
# Experimental: as §1
# [4] = Toxicity in black mice (C57BL/6), 3 weeks; type: in vivo; settings: sodium selenite or selenocystine 3 mg/kg, alone or with diphenyl diselenide 50 and 100 mg/kg
# Experimental: Black mice (C57BJ/6) mice were treated perorally every second day with either vehicle (canola oil) or diphenyl diselenide at two different dose levels (50 and 100 mg/kg body weight) for 3 weeks. Final body weight and weight of the major organs were measured at necropsy.
# Black mice (C57BJ/6) mice were treated with vehicle (PBS i.p. and canola oil p.o.), sodium selenite (3 mg/kg body weight), selenocystine (3 mg/kg body weight), or in combinations with two different doses of diphenyl diselenide (50 and 100 mg/kg body weight) for 3 weeks. Final body weight and weight of the major organs were measured at necropsy.
# SNB-19 = test: WST-1 cytotoxicity, SNB-19; type: cell-based; settings: Homo sapiens; SNB-19; alone; 24 h; read-out: Calculated IC50 values
# Experimental: as §1
# Hep3B = test: WST-1 cytotoxicity, Hep3B; type: cell-based; settings: Homo sapiens, alone, 24 h, read-out: Calculated IC50 values
# Experimental: as §1
# [5] = test system: Primary peripheral blood mononuclear cells; test: WST-1 cytotoxicity, primary PBMCs; settings: Homo sapiens, PBMC, 24 h, read-out: Calculated IC50 values
# MCF-7 = test: WST-1 cytotoxicity, MCF-7; type: cell-based, human; settings: Homo sapiens, MCF7, MCF-7, alone
# Experimental: as §1
# [6] = orally, 50-200 mg/day for 49 days; human; cited from earlier work
# HepG2 = test: WST-1 cytotoxicity, HepG2; type: cell-based; settings: Homo sapiens; HepG2; alone; 24 h; read-out: Calculated IC50 values
# AML193 = test: WST-1 cytotoxicity, AML193; type: cell-based; settings: Homo sapiens; AML193; alone; 24 h; read-out: Calculated IC50 values
# Experimental: as §1
# A375 = test: WST-1 cytotoxicity, A375; type: cell-based; settings: Homo sapiens, A-375; A375; alone; 24 h; read-out: Calculated IC50 values
# Experimental: as §1
# [7] = test system: extracellular reduced thiols; test: Extracellular thiols measurement (DTDP method); type: cell-based, human; settings: A549 and H1299; 24 h; Erastin 5 μM, MSG 50 mM, Sorafenib 2.5 μM, trans-2,4-PDC 100 μM
# Experimental: Cell culture media was collected at specified time points after incubation with the respective compounds as described in the respective figure legends and extracellular total thiols were measured using the DTDP method 19. The protocol was adjusted to 96-well plate format. […] Absorbance was measured at 324 nm in a spectrophotometer (PowerWave HT, BioTek, VT, USA). The assay mixture with fresh media was used as a blank.
# [8] = HL60 (Leukemia), compound alone, 24 h, '>' = dose approximation, read-out: IC50 values
# [9] = H661 (Lung), compound alone, '>' = dose approximation, read-out: IC50 values
# [10] = NB4 (Leukemia), compound alone, 24 h, '>' = dose approximation, read-out: IC50 values
# [11] = A549 (Lung), compound alone, 24 h, '>' = dose approximation, read-out: IC50 values
# [12] = 24 h, read-out: Calculated IC50 values
# [13] = read-out: Calculated IC50 values of selenocystine
smiles,measurement,setting,value
"COC(=O)/C=C/C(=O)OC [Dimethyl fumarate, reference compound]",IC50,HL60; [8],> 40 µM
same,IC50,H661; [9],> 40 µM
same,IC50,NB4; [10],> 40 µM
same,IC50,A549; [11],> 40 µM
c1ccc([Te][Te]c2ccccc2)cc1 [diphenyl ditelluride],ATF4 activity,ATF4,Increased ATF4 activity
c1ccc(SSc2ccccc2)cc1 [Phenyl disulfide],IC50,HL60; [8],> 40 µM
same,IC50,H661; [9],> 20 µM
same,IC50,NB4; [10],> 20 µM
same,IC50,A549; [11],> 40 µM
O=C(O)c1cc(/N=N/c2ccc(S(=O)(=O)Nc3ccccn3)cc2)ccc1O [Sulfasalazine],effect of co-treatment on cytotoxicity of sodium selenite and selenocystine,[1]; chemical inhibition of cystine transport,inhibition of cytotoxicity
CCOc1ccccc1-n1c(C(C)N2CCN(C(=O)COc3ccc(Cl)cc3)CC2)nc2ccccc2c1=O (centres unmarked) [Erastin],effect of co-treatment on cytotoxicity of sodium selenite and selenocystine,[1],inhibition of cytotoxicity
"N[C@@H](C[Se][Se]C[C@H](N)C(=O)O)C(=O)O [Selenocystine, selenocystine]",IC50,U1906E,2.18 µM
same,IC50,LS174T,3.88 µM
same,IC50,[2],300 µM
same,IC50,8-MGBA,49.7 µM
same,IC50,SHSY5-SY,115 µM
same,maximum plasma concentration (conservative estimation),[3],17.8 µM
same,IC50,"HL60; HL60, alone, 24 h, read-out: Calculated IC50 values",22.6 µM
same,IC50,"HL60; HL60, alone, read-out: Calculated IC50 values of selenocystine",22.6 µM
same,IC50,THP-1,0.92 µM
same,IC50,H1299; [12],22.7 µM
same,IC50,H1299; [13],22.7 µM
same,IC50,HeLa,5.78 µM
same,IC50,HUH7,92.7 µM
same,Calculated IC50 values,IGROV1,Non-toxic*
same,IC50,OV2008,6.98 µM
same,IC50,U1906L,17.8 µM
same,IC50,"H661; H661, alone, read-out: Calculated IC50 values",55.7 µM
same,IC50,PANC-1,18.5 µM
same,toxic effects (body and organ weight at necropsy),[4],No demonstrated toxic effects could be observed
same,IC50,SNB-19,78.7 µM
same,IC50,Hep3B,74.7 µM
same,IC50,"NB4; NB4, alone, 24 h, read-out: Calculated IC50 values",44.1 µM
same,IC50,"NB4; NB4, alone, read-out: Calculated IC50 values of selenocystine",44.1 µM
same,IC50,"A549; A549, alone, 24 h, read-out: Calculated IC50 values",8.7 µM
same,IC50,"A549; A549, alone, read-out: Calculated IC50 values of selenocystine",8.7 µM
same,IC50,[5],35.4 µM
same,IC50,MCF-7; [12],34.9 µM
same,IC50,MCF-7; [13],34.9 µM
same,drug-induced toxic effects,[6],no signs of drug-induced toxic effects were reported
same,IC50,HepG2,12.4 µM
same,IC50,AML193,47 µM
same,IC50,A375,8.6 µM
N[C@@H](CCC(=O)O)C(=O)[O-].[Na+] [mono-sodium glutamate],thiols efflux,[7],inhibited thiols efflux
